The results in this text go back to the PolyMetriX glass transition set.

For the molecule `*C(=O)Nc1cc(NC(=O)c2ccc3[nH]c(-c4cc(-c5nc6cc(*)ccc6[nH]5)cc(N5C(=O)c6ccccc6C5=O)c4)nc3c2)cc(-c2nc3ccccc3[nH]2)c1` (repeat unit), the glass transition temperature stood at 334.00 °C. As for `*C(=O)Nc1cc(NC(=O)c2ccc3c(c2)C(=O)N(c2cc(-c4nc5ccccc5s4)cc(N4C(=O)c5ccc(*)cc5C4=O)c2)C3=O)cc(-c2nc3ccccc3[nH]2)c1` (repeat unit), the figure is 368.00 °C; as for `*C(=O)Nc1ccc(-c2cc(-c3ccccc3)cc(-c3ccc(NC(=O)c4ccc5c(c4)C(=O)N(c4ccc(Oc6cccc7c(N8C(=O)c9ccc(*)cc9C8=O)cccc67)cc4)C5=O)cc3)n2)cc1` (repeat unit), 295.00 °C. The result for `*C(=O)Nc1ccc(-c2ccc(NC(=O)c3ccc4c(c3)C(=O)N(c3ccc(Oc5ccc(N6C(=O)c7ccc(*)cc7C6=O)cc5-c5ccccc5)c(-c5ccccc5)c3)C4=O)cc2)cc1` (repeat unit) reads 358.00 °C; that for `*C(=O)Nc1ccc(-c2ccc(NC(=O)c3ccc4c(c3)C(=O)N(c3ccc(Oc5cccc6c(N7C(=O)c8ccc(*)cc8C7=O)cccc56)cc3)C4=O)cc2)cc1` (repeat unit), 301.00 °C. `*C(=O)Nc1ccc(C(=O)c2ccc(NC(=O)c3ccc4c(c3)C(=O)N(c3cccc(P(=O)(c5ccccc5)c5cccc(N6C(=O)c7ccc(*)cc7C6=O)c5)c3)C4=O)cc2)cc1` (repeat unit) yielded a glass transition temperature of 238.00 °C. `*C(=O)OCCCCCCCCCCCCOC(=O)c1ccc(NC(=O)c2ccc(N3C(=O)c4ccc(*)cc4C3=O)cc2)cc1` (repeat unit) gave a glass transition temperature of 74.00 °C. As for `*C(=O)OCCCCCCCOC(=O)c1ccc(NC(=O)c2ccc(N3C(=O)c4ccc(*)cc4C3=O)cc2)cc1` (repeat unit), the figure is 106.00 °C; as for `*C(=O)OCCCCCCOC(=O)c1ccc(NC(=O)c2ccc(N3C(=O)c4ccc(*)cc4C3=O)cc2)cc1` (repeat unit), 107.00 °C. The result for `*C(=O)OCCCCOC(=O)c1ccc(NC(=O)c2ccc(N3C(=O)c4ccc(*)cc4C3=O)cc2)cc1` (repeat unit) reads 130.00 °C.

Molecule `*C(=O)c1cc2c(cc1Cl)C(=O)N(c1cc(Cl)cc(N3C(=O)c4cc(*)c(Cl)cc4C3=O)c1)C2=O` (repeat unit) returned a glass transition temperature of 311.00 °C. The result for `*C(=O)c1cc2c(cc1Cl)C(=O)N(c1cccc(N3C(=O)c4cc(*)c(Cl)cc4C3=O)c1)C2=O` (repeat unit) reads 313.00 °C; that for `*C(=O)c1ccc2c(c1)C(=O)N(c1ccc(-c3ccc(NC(=O)c4cccc(C(=O)Nc5ccc(-c6ccc(N7C(=O)c8ccc(*)cc8C7=O)cc6)cc5)c4)cc3)cc1)C2=O` (repeat unit), 238.00 °C; that for `*CCCCCCCCCCOc1ccc(-c2cc(-c3ccc(-c4ccccc4)cc3)c(-c3ccc(NC(=O)c4ccc(C(=O)Nc5ccc(-c6c(-c7ccc(-c8ccccc8)cc7)cc(-c7ccc(O*)cc7)cc6-c6ccc(-c7ccccc7)cc6)cc5)cc4)cc3)c(-c3ccc(-c4ccccc4)cc3)c2)cc1` (repeat unit), 111.00 °C. For `*CCCCCCOc1ccc(-c2cc(-c3ccc(-c4ccccc4)cc3)c(-c3ccc(NC(=O)c4ccc(C(=O)Nc5ccc(-c6c(-c7ccc(-c8ccccc8)cc7)cc(-c7ccc(O*)cc7)cc6-c6ccc(-c7ccccc7)cc6)cc5)cc4)cc3)c(-c3ccc(-c4ccccc4)cc3)c2)cc1` (repeat unit), the glass transition temperature is 121.50 °C.

As for `*CCOCCOCCOCCOc1ccc(C(=O)Nc2cc(NC(=O)c3ccc(O*)cc3)cc(-c3nc4ccccc4[nH]3)c2)cc1` (repeat unit), the glass transition temperature was 163.00 °C. With `*Cc1ccc2oc(=O)c(C(=O)Nc3ccc(C(c4ccc(NC(=O)c5cc6cc(*)ccc6oc5=O)cc4)(C(F)(F)F)C(F)(F)F)cc3)cc2c1` (repeat unit), the glass transition temperature is 329.00 °C.

As to `*Nc1cc(NC(=O)c2ccc(C(*)=O)cc2)cc(-c2nc3ccccc3[nH]2)c1` (repeat unit), the glass transition temperature came out at 267.50 °C.

As to `*Nc1cc(NC(=O)c2ccc(C(*)=O)cc2)cc(-c2nc3ccccc3oc2=O)c1` (repeat unit), the glass transition temperature came to 103.00 °C. In the case of `*Nc1cc(NC(=O)c2ccc(C(*)=O)cc2)cc(C(=O)Oc2ccc(-c3ccccc3)cc2)c1` (repeat unit), the glass transition temperature is 178.00 °C.

Consider `*Nc1cc(NC(=O)c2ccc(C(*)=O)cc2)cc(C(=O)Oc2cccc3ccccc23)c1` (repeat unit), for which the glass transition temperature amounted to 192.00 °C. In turn, `*Nc1ccc(-c2c(-c3ccc(-c4ccccc4)cc3)cc(-c3ccc(-c4cc(-c5ccc(-c6ccccc6)cc5)c(-c5ccc(NC(=O)c6ccc(C(*)=O)cc6)cc5)c(-c5ccc(-c6ccccc6)cc5)c4)cc3)cc2-c2ccc(-c3ccccc3)cc2)cc1` (repeat unit) yielded a glass transition temperature of 305.00 °C.

In turn, `*Nc1ccc(-c2c(-c3ccccc3)cc(-c3ccc(-c4cc(-c5ccccc5)c(-c5ccc(NC(=O)c6ccc(C(*)=O)cc6)cc5)c(-c5ccccc5)c4)cc3)cc2-c2ccccc2)cc1` (repeat unit) returned a glass transition temperature of 290.00 °C. As for `*Nc1ccc(-c2ccc(NC(=O)c3cc(C(*)=O)cc(S(=O)(=O)c4ccccc4)c3)cc2)cc1` (repeat unit), the figure is 319.00 °C. As for `*Nc1ccc(C(=O)c2ccc(NC(=O)c3ccc(C(*)=O)cc3)cc2)cc1` (repeat unit), the figure is 300.00 °C; as for `*Nc1ccc(C(=O)c2ccc(NC(=O)c3cccc(C(*)=O)c3)cc2)cc1` (repeat unit), 253.20 °C.

The molecule `*Nc1ccc(C(c2ccc(NC(=O)c3ccc(-c4ccc(C(*)=O)cc4)cc3)cc2)(P2(=O)Oc3ccccc3-c3ccccc32)P2(=O)Oc3ccccc3-c3ccccc32)cc1` (repeat unit) registered a glass transition temperature of 251.00 °C.

For `*Nc1ccc(C(c2ccc(NC(=O)c3ccc(C(c4ccc(C(*)=O)cc4)(C(F)(F)F)C(F)(F)F)cc3)cc2)(P2(=O)Oc3ccccc3-c3ccccc32)P2(=O)Oc3ccccc3-c3ccccc32)cc1` (repeat unit), the glass transition temperature is 235.00 °C.

With `*Nc1ccccc1-c1ccc(NC(=O)c2ccc(C(*)=O)cc2)cc1` (repeat unit), the glass transition temperature turned out to be 275.00 °C. `*Nc1ccccc1-c1ccc(NC(=O)c2cccc(C(*)=O)c2)cc1` (repeat unit) registered a glass transition temperature of 248.00 °C. As for `*Oc1ccc(C(=O)Nc2ccc(C(c3ccc(NC(=O)c4ccc(OC(=O)c5ccc(C(*)=O)cc5)cc4)cc3)(C(F)(F)F)C(F)(F)F)cc2)cc1` (repeat unit), the figure is 266.00 °C; as for `*Oc1ccc(C(=O)Nc2ccccc2-c2ccc(NC(=O)c3ccc(*)cc3)cc2)cc1` (repeat unit), 251.00 °C; as for `*Oc1ccc(Oc2ccc(C(=O)c3ccc(NC(=O)c4cccc(C(=O)Nc5ccc(C(=O)c6ccc(*)cc6)cc5)c4)cc3)cc2)cc1` (repeat unit), 198.00 °C.

Take `*Oc1ccc(S(=O)(=O)c2ccc(Oc3ccc(C(=O)c4ccc(-c5ccc(C(=O)c6ccc(*)cc6)cc5)cc4)cc3)cc2)cc1` (repeat unit): the glass transition temperature stood at 207.00 °C.

In turn, `*Oc1cccc(Oc2ccc(C(=O)c3ccc(NC(=O)c4ccc(C(=O)Nc5ccc(C(=O)c6ccc(*)cc6)cc5)cc4)cc3)cc2)c1` (repeat unit) yielded a glass transition temperature of 190.00 °C. The result for `*Oc1cccc(Oc2ccc(C(=O)c3ccc(NC(=O)c4cccc(C(=O)Nc5ccc(C(=O)c6ccc(*)cc6)cc5)c4)cc3)cc2)c1` (repeat unit) reads 214.00 °C; that for `*c1ccc(-c2ccc(NC(=O)c3cccc(C(=O)Nc4ccc(-c5ccc(N6C(=O)c7ccc(-c8ccc9c(c8)C(=O)N(*)C9=O)cc7C6=O)cc5)cc4)c3)cc2)cc1` (repeat unit), 230.00 °C.

In turn, `*c1ccc(C(=O)Nc2ccc(-c3cc(Br)ccc3NC(=O)c3ccc(S(*)(=O)=O)cc3)cc2)cc1` (repeat unit) gave a glass transition temperature of 288.00 °C. On to `*c1ccc(C(=O)c2ccc(-n3nc(-c4ccc(Oc5ccc(-c6nn(*)c(=O)c7ccccc67)cc5)cc4)c4ccccc4c3=O)cc2)cc1` (repeat unit), for which the glass transition temperature turned out to be 301.00 °C.

Molecule `*c1ccc(NC(=O)c2ccc(C(=O)Nc3ccc(-c4nnc(*)o4)cc3)c(Oc3ccccc3)c2)cc1` (repeat unit) had a glass transition temperature of 272.00 °C. As for `*c1ccc(NC(=O)c2ccc(OCCOCCOCCOCCOc3ccc(C(=O)Nc4ccc5[nH]c(*)nc5c4)cc3)cc2)cc1` (repeat unit), the figure is 140.00 °C; as for `*c1ccc(NC(=O)c2ccc(OCCOCCOCCOc3ccc(C(=O)Nc4ccc5[nH]c(*)nc5c4)cc3)cc2)cc1` (repeat unit), 155.00 °C; as for `*c1ccc(NC2CC(=O)N(c3ccc(-c4sc(-c5ccc(N6C(=O)CC(Nc7ccc(-c8nc(-c9ccc(-c%10nc(-c%11ccc([N+](=O)[O-])cc%11)c(-c%11ccc([N+](=O)[O-])cc%11)[nH]%10)cc9)[nH]c8*)cc7)C6=O)cc5)c(-c5ccccc5)c4-c4ccccc4)cc3)C2=O)cc1` (repeat unit), 152.00 °C. `*c1ccc(Oc2ccc(C(=O)c3ccc(-c4ccc(C(=O)c5ccc(Oc6ccc(-c7nc(-c8ccc(-c9nc(*)c(-c%10ccccc%10)[nH]9)cc8)[nH]c7-c7ccccc7)cc6)cc5)cc4)cc3)cc2)cc1` (repeat unit): the glass transition temperature was found to be 273.00 °C. In turn, `*c1ccc(Oc2ccc(C(=O)c3ccc(-c4ccc(C(=O)c5ccc(Oc6ccc(-c7nc(-c8cccc(-c9nc(*)c(-c%10ccccc%10)[nH]9)c8)[nH]c7-c7ccccc7)cc6)cc5)cc4)cc3)cc2)cc1` (repeat unit) yielded a glass transition temperature of 276.00 °C. The result for `*c1ccc(Oc2ccc(C(=O)c3ccc(-c4ccc(C(=O)c5ccc(Oc6ccc(-c7nc(-c8ccccc8)[nH]c7*)cc6)cc5)cc4)cc3)cc2)cc1` (repeat unit) reads 258.00 °C; that for `*c1ccc(Oc2ccc3ccccc3c2-c2c(Oc3ccc(N4C(=O)c5ccc(NC(=O)Nc6ccc(-c7cc(-c8ccc(-c9ccccc9)cc8)cc(-c8ccc(NC(=O)Nc9ccc%10c(c9)C(=O)N(*)C%10=O)cc8)n7)cc6)cc5C4=O)cc3)ccc3ccccc23)cc1` (repeat unit), 302.00 °C.
